How the values were obtained:
[1] = Freeze-thaw stability in spiked pooled human plasma; assay type: physicochemical
[2] = Long-term stability in spiked pooled human plasma
[3] = Autosampler stability of ready for injection samples; assay type: physicochemical, human
[4] = Short-term stability in spiked pooled human plasma (bench-top, 4 °C, 56 °C)
[5] = parameters: method as in supplement references [1-55] as printed per drug; conditions: minimum steady-state blood plasma concentration after multiple dose administration; ref supplement references [1-55] per drug; cited from earlier work

With `CCc1cc2c(cc1N1CCC(N3CCOCC3)CC1)C(C)(C)c1[nH]c3cc(C#N)ccc3c1C2=O` [Alectinib] the “Freeze-Thaw Accuracy [%]” value ([1]; validation standard 2xLLOV) was 100.0%, the “Freeze-Thaw Accuracy [%]” value ([1]; validation standard LLOV) was 91.2% and the “Freeze-Thaw Accuracy [%]” value ([1]; validation standard MOV) was 101.2%. The “Freeze-Thaw Accuracy [%]” value ([1]; validation standard ULOV) was 96.5%, the “Long-term stability, 1 month, -20°C Accuracy [%]” value ([2]; validation standard 2xLLOV) was 87.1% and the “Long-term stability, 1 month, -80°C Accuracy [%]” value ([2]; validation standard 2xLLOV) was 83.3%. For the same compound, the “Long-term stability, 2 month, -20°C Accuracy [%]” value ([2]; validation standard 2xLLOV) was 86.4%, the “Long-term stability, 2 month, -80°C Accuracy [%]” value ([2]; validation standard 2xLLOV) was 86.9% and the “Long-term stability, 3 month, -20°C Accuracy [%]” value ([2]; validation standard 2xLLOV) was 82.7%. The “Long-term stability, 3 month, -80°C Accuracy [%]” value ([2]; validation standard 2xLLOV) was 86.1%, the “Long-term stability, 6 weeks, 4°C, without daylight Accuracy [%]” value ([2]; validation standard 2xLLOV) was 81.2% and the “Long-term stability, 1 month, -20°C Accuracy [%]” value ([2]; validation standard LLOV) was 84.7%. The “Long-term stability, 1 month, -80°C Accuracy [%]” value ([2]; validation standard LLOV) was 83.5%, the “Long-term stability, 2 month, -20°C Accuracy [%]” value ([2]; validation standard LLOV) was 79.9% and the “Long-term stability, 2 month, -80°C Accuracy [%]” value ([2]; validation standard LLOV) was 81.8%. For the same compound, the “Long-term stability, 3 month, -20°C Accuracy [%]” value ([2]; validation standard LLOV) was 79.0%, the “Long-term stability, 3 month, -80°C Accuracy [%]” value ([2]; validation standard LLOV) was 81.6% and the “Long-term stability, 6 weeks, 4°C, without daylight Accuracy [%]” value ([2]; validation standard LLOV) was 75.7%. The “Long-term stability, 1 month, -20°C Accuracy [%]” value ([2]; validation standard MOV) was 85.8%, the “Long-term stability, 1 month, -80°C Accuracy [%]” value ([2]; validation standard MOV) was 83.9% and the “Long-term stability, 2 month, -20°C Accuracy [%]” value ([2]; validation standard MOV) was 89.5%. The “Long-term stability, 2 month, -80°C Accuracy [%]” value ([2]; validation standard MOV) was 89.3%, the “Long-term stability, 3 month, -20°C Accuracy [%]” value ([2]; validation standard MOV) was 88.4% and the “Long-term stability, 3 month, -80°C Accuracy [%]” value ([2]; validation standard MOV) was 86.7%. The “Long-term stability, 6 weeks, 4°C, without daylight Accuracy [%]” value ([2]; validation standard MOV) was 92.7%, the “Long-term stability, 1 month, -20°C Accuracy [%]” value ([2]; validation standard ULOV) was 85.2% and the “Long-term stability, 1 month, -80°C Accuracy [%]” value ([2]; validation standard ULOV) was 81.7%. For the same compound, the “Long-term stability, 2 month, -20°C Accuracy [%]” value ([2]; validation standard ULOV) was 88.3%, the “Long-term stability, 2 month, -80°C Accuracy [%]” value ([2]; validation standard ULOV) was 88.1% and the “Long-term stability, 3 month, -20°C Accuracy [%]” value ([2]; validation standard ULOV) was 84.7%. For the same compound, the “Long-term stability, 3 month, -80°C Accuracy [%]” value ([2]; validation standard ULOV) was 84.8%, the “Long-term stability, 6 weeks, 4°C, without daylight Accuracy [%]” value ([2]; validation standard ULOV) was 86.5% and the “Autosampler (24h, 4°C) Accuracy [%]” value ([3]; validation standard 2xLLOV) was 99.6%. For the same compound, the “Autosampler (72h, 4°C) Accuracy [%]” value ([3]; validation standard 2xLLOV) was 102.6%, the “Autosampler (24h, 4°C) Accuracy [%]” value ([3]; validation standard LLOV) was 91.8% and the “Autosampler (72h, 4°C) Accuracy [%]” value ([3]; validation standard LLOV) was 93.7%. For the same compound, the “Autosampler (24h, 4°C) Accuracy [%]” value ([3]; validation standard MOV) was 104.1%, the “Autosampler (72h, 4°C) Accuracy [%]” value ([3]; validation standard MOV) was 104.1% and the “Autosampler (24h, 4°C) Accuracy [%]” value ([3]; validation standard ULOV) was 99.3%. The “Autosampler (72h, 4°C) Accuracy [%]” value ([3]; validation standard ULOV) was 100.6%.

For `CNC(=O)c1ccc(N2C(=S)N(c3cnc(C#N)c(C(F)(F)F)c3)C(=O)C23CCC3)cc1F` [Apalutamide], the “Short-time stability (1h, 56°C) Accuracy [%]” value ([4]; validation standard 2xLLOV) was 46.5%, the “Short-time stability (24h, 4°C, without daylight) Accuracy [%]” value ([4]; validation standard 2xLLOV) was 93.0% and the “Short-time stability (24h, RT, with daylight) Accuracy [%]” value ([4]; validation standard 2xLLOV) was 76.8%. The “Short-time stability (24h, RT, without daylight) Accuracy [%]” value ([4]; validation standard 2xLLOV) was 80.8%, the “Short-time stability (1h, 56°C) Accuracy [%]” value ([4]; validation standard LLOV) was 37.6% and the “Short-time stability (24h, 4°C, without daylight) Accuracy [%]” value ([4]; validation standard LLOV) was 96.9%. The “Short-time stability (24h, RT, with daylight) Accuracy [%]” value ([4]; validation standard LLOV) was 72.0%, the “Short-time stability (24h, RT, without daylight) Accuracy [%]” value ([4]; validation standard LLOV) was 75.7% and the “Short-time stability (1h, 56°C) Accuracy [%]” value ([4]; validation standard MOV) was 41.2%. The “Short-time stability (24h, 4°C, without daylight) Accuracy [%]” value ([4]; validation standard MOV) was 84.3%, the “Short-time stability (24h, RT, with daylight) Accuracy [%]” value ([4]; validation standard MOV) was 75.7% and the “Short-time stability (24h, RT, without daylight) Accuracy [%]” value ([4]; validation standard MOV) was 75.2%. The “Short-time stability (1h, 56°C) Accuracy [%]” value ([4]; validation standard ULOV) was 29.0%, the “Short-time stability (24h, 4°C, without daylight) Accuracy [%]” value ([4]; validation standard ULOV) was 84.2% and the “Short-time stability (24h, RT, with daylight) Accuracy [%]” value ([4]; validation standard ULOV) was 63.9%. For the same compound, the “Short-time stability (24h, RT, without daylight) Accuracy [%]” value ([4]; validation standard ULOV) was 63.8%, the “Freeze-Thaw Accuracy [%]” value ([1]; validation standard 2xLLOV) was 95.6% and the “Freeze-Thaw Accuracy [%]” value ([1]; validation standard LLOV) was 93.8%. The “Freeze-Thaw Accuracy [%]” value ([1]; validation standard MOV) was 94.8%, the “Freeze-Thaw Accuracy [%]” value ([1]; validation standard ULOV) was 95.7% and the “Long-term stability, 1 month, -20°C Accuracy [%]” value ([2]; validation standard 2xLLOV) was 94.7%. The “Long-term stability, 1 month, -80°C Accuracy [%]” value ([2]; validation standard 2xLLOV) was 93.2%, the “Long-term stability, 2 month, -20°C Accuracy [%]” value ([2]; validation standard 2xLLOV) was 91.6% and the “Long-term stability, 2 month, -80°C Accuracy [%]” value ([2]; validation standard 2xLLOV) was 100.0%. The “Long-term stability, 3 month, -20°C Accuracy [%]” value ([2]; validation standard 2xLLOV) was 85.1%, the “Long-term stability, 3 month, -80°C Accuracy [%]” value ([2]; validation standard 2xLLOV) was 94.9% and the “Long-term stability, 6 weeks, 4°C, without daylight Accuracy [%]” value ([2]; validation standard 2xLLOV) was 73.5%. The “Long-term stability, 1 month, -20°C Accuracy [%]” value ([2]; validation standard LLOV) was 96.1%, the “Long-term stability, 1 month, -80°C Accuracy [%]” value ([2]; validation standard LLOV) was 100.0% and the “Long-term stability, 2 month, -20°C Accuracy [%]” value ([2]; validation standard LLOV) was 93.4%. For the same compound, the “Long-term stability, 2 month, -80°C Accuracy [%]” value ([2]; validation standard LLOV) was 102.3%, the “Long-term stability, 3 month, -20°C Accuracy [%]” value ([2]; validation standard LLOV) was 90.4% and the “Long-term stability, 3 month, -80°C Accuracy [%]” value ([2]; validation standard LLOV) was 98.4%. The “Long-term stability, 6 weeks, 4°C, without daylight Accuracy [%]” value ([2]; validation standard LLOV) was 78.5%, the “Long-term stability, 1 month, -20°C Accuracy [%]” value ([2]; validation standard MOV) was 89.4% and the “Long-term stability, 1 month, -80°C Accuracy [%]” value ([2]; validation standard MOV) was 91.1%. The “Long-term stability, 2 month, -20°C Accuracy [%]” value ([2]; validation standard MOV) was 90.2%, the “Long-term stability, 2 month, -80°C Accuracy [%]” value ([2]; validation standard MOV) was 97.6% and the “Long-term stability, 3 month, -20°C Accuracy [%]” value ([2]; validation standard MOV) was 86.8%. The “Long-term stability, 3 month, -80°C Accuracy [%]” value ([2]; validation standard MOV) was 89.7%, the “Long-term stability, 6 weeks, 4°C, without daylight Accuracy [%]” value ([2]; validation standard MOV) was 54.9% and the “Long-term stability, 1 month, -20°C Accuracy [%]” value ([2]; validation standard ULOV) was 90.6%. The “Long-term stability, 1 month, -80°C Accuracy [%]” value ([2]; validation standard ULOV) was 90.2%, the “Long-term stability, 2 month, -20°C Accuracy [%]” value ([2]; validation standard ULOV) was 88.9% and the “Long-term stability, 2 month, -80°C Accuracy [%]” value ([2]; validation standard ULOV) was 95.9%. The “Long-term stability, 3 month, -20°C Accuracy [%]” value ([2]; validation standard ULOV) was 78.8%, the “Long-term stability, 3 month, -80°C Accuracy [%]” value ([2]; validation standard ULOV) was 90.1% and the “Long-term stability, 6 weeks, 4°C, without daylight Accuracy [%]” value ([2]; validation standard ULOV) was 48.1%. For the same compound, the “Autosampler (24h, 4°C) Accuracy [%]” value ([3]; validation standard 2xLLOV) was 102.1%, the “Autosampler (72h, 4°C) Accuracy [%]” value ([3]; validation standard 2xLLOV) was 105.1% and the “Autosampler (24h, 4°C) Accuracy [%]” value ([3]; validation standard LLOV) was 97.2%. The “Autosampler (72h, 4°C) Accuracy [%]” value ([3]; validation standard LLOV) was 102.8%, the “Autosampler (24h, 4°C) Accuracy [%]” value ([3]; validation standard MOV) was 106.8% and the “Autosampler (72h, 4°C) Accuracy [%]” value ([3]; validation standard MOV) was 106.0%. The “Autosampler (24h, 4°C) Accuracy [%]” value ([3]; validation standard ULOV) was 102.6%, the “Autosampler (72h, 4°C) Accuracy [%]” value ([3]; validation standard ULOV) was 106.5% and the “cmin” value [5] was 3700 ng/mL.

— paper PMC8699473, “An Easily Expandable Multi-Drug LC-MS Assay for the Simultaneous Quantification of 57 Oral Antitumor Drugs in Human Plasma” (Cancers, 2021)
